Data on 24 compounds can be found in US9469631B2 (Boehringer Ingelheim International GmbH, priority 2012, dated 2016).

human GPR119, sequence (Q8TDV5 whole entry): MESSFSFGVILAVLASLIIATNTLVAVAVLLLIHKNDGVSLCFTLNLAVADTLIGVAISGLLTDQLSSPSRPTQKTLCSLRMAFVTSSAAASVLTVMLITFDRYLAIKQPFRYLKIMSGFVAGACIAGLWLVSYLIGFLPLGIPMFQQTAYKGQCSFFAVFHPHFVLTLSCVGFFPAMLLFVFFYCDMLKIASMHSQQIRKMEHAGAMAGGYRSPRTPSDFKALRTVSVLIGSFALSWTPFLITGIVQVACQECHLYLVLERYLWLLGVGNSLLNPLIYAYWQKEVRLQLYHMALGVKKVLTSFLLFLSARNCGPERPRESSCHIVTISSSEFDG

This assay concerns the target human GPR119 (Homo sapiens (Human), UniProt Q8TDV5). Nature of the assay: AlphaScreen cAMP assay in MIN6 cells stably transfected with human GPR119. In kind it is cell-based. Conditions: Min-6/hGPR119 cells, 45 min incubation at room temperature. The procedure: The compounds of formula I according to the invention modulate the activity of the G-protein-coupled receptor GPR119. The effect of the compounds on the activation of GPR119 and on the stimulation of intracellular cAMP concentration is determined using the AlphaScreen cAMP Assay Kit (Cat. No. #6760625R) made by PerkinElmer.
MIN6 cells [Miyazaki J et al. Endocrinology. 1990 July; 127(1):126-32] are stably transfected with an expression vector for human GPR119 cDNA (Acc. No. NP_848566). Min-6/hGPR119 cells are cultured in DMEM, 10% FBS, 50 μM β-mercaptoethanol, 0.3 mg/mL Geniticin, 2 mM GlutaMAX at 37° C. 5% CO2. For the assay, the cells are seeded in Optiplates (white, 384-well, 160W-barcoded, TC, sterile with lid, Cat. No. #6007688 (Perkin Elmer); 10000 cells/well; 50 μl). The plates covered with lids are then incubated for 24 hours at 37° C./5% CO2. After the medium is aspirated from the wells completely, 10 μl of the test compound are added, the compounds are diluted using stimulating buffer (140 mM NaCl, 3.6 mM KCl, 0.5 mM NaH2PO4, 0.5 mM MgSO4, 1.5 mM CaCl2, 10 mM Hepes, 5 mM NaHCO3; pH 7.4. 0.5 mM IBMX and 0.1% BSA, the final DMSO concentration is 1%). After 45 minutes incubation at room temperature (approx. 20° C.), the cAMP concentrations are determined using the AlphaScreen cAMP Assay Kit (Cat. No. #6760625R from PerkinElmer).
With `CN(C)Cc1ccc(-c2ccc(C(=O)N(C3CC3)C3CCN(C(=O)OC(C)(C)C)CC3)cc2)cc1` [Example 112, 4-[Cyclopropyl-(4′-dimethylaminomethyl-biphenyl-4-carbonyl)-amino]-piperidine-1-carboxylic acid tert-butyl ester], the concentration giving a half-maximal response (EC50) was 1740 nM.
As for `CC(C)(C)OC(=O)N1CCC(N(C(=O)c2ccc(-n3cccn3)cc2)C2CC2)CC1` [Example 71, 4-[Cyclopropyl-(4-pyrazol-1-yl-benzoyl)-amino]-piperidine-1-carboxylic acid tert-butyl ester], the EC50 came out at 637 nM.
`CC(C)(C)OC(=O)N1CCC(N(C(=O)c2ccc(-c3cn[nH]c3)cc2)C2CC2)CC1` [Example 12, 4-{Cyclopropyl-[4-(1H-pyrazol-4-yl)-benzoyl]-amino}-piperidine-1-carboxylic acid tert-butyl ester] registered an EC50 of 240 nM.
As for `CC(C)(C)OC(=O)N1CCC(N(C(=O)c2ccc(-c3cnco3)c([N+](=O)[O-])c2)C2CC2)CC1` [Example 7, 4-[Cyclopropyl-(3-nitro-4-oxazol-5-yl-benzoyl)-amino]-piperidine-1-carboxylic acid tert-butyl ester], a half-maximal effect (EC50) was put at 78 nM.
For the compound `CC(C)(OC(=O)N1CCC(N(C(=O)c2ccc(-c3cnco3)cc2)C2CC2)CC1)C(F)(F)F` [Example 130, 4-[Cyclopropyl-(4-oxazol-5-yl-benzoyl)-amino]-piperidine-1-carboxylic acid 2,2,2-trifluoro-1,1-dimethyl-ethyl ester], the EC50 came out at 10 nM.
For `CC(C)(C)OC(=O)N1CCC(N(C(=O)c2ccc(-c3ccc(S(N)(=O)=O)cc3)cc2)C2CC2)CC1` [Example 105, 4-[Cyclopropyl-(4′-sulfamoyl-biphenyl-4-carbonyl)-amino]-piperidine-1-carboxylic acid tert-butyl ester], the half-maximal effective concentration (EC50) turned out to be 115 nM.
`CC(C)(C)COC(=O)N1CCC(N(C(=O)c2ccc(-c3cnco3)cc2)C2CC2)CC1` [Example 121, 4-[Cyclopropyl-(4-oxazol-5-yl-benzoyl)-amino]-piperidine-1-carboxylic acid 2,2-dimethyl-propyl ester] came in with an EC50 of 45 nM.
As to `CC(C)(C)OC(=O)N1CC[C@@H](N(C(=O)c2ccc(-c3cnco3)cc2)C2CC2)[C@H](F)C1` (single isomer, unassigned) [Example 39], the EC50 came out at 634 nM.
As for `O=C(OC1CCOCC1)N1CCC(N(C(=O)c2ccc(-c3cnco3)cc2)C2CC2)CC1` [Example 11, 4-[Cyclopropyl-(4-oxazol-5-yl-benzoyl)-amino]-piperidine-1-carboxylic acid tetrahydro-pyran-4-yl ester], the midpoint of the response, the EC50, lay at 516 nM.
`CC(C)(C)OC(=O)N1CCC(N(C(=O)c2ccc(-c3cocn3)cc2)C2CC2)CC1` [Example 44, 4-[Cyclopropyl-(4-oxazol-4-yl-benzoyl)-amino]-piperidine-1-carboxylic acid tert-butyl ester] came in with a half-maximal effective concentration (EC50) of 298 nM.
Compound `CC(C)(C)OC(=O)N1CCC(N(C(=O)c2ccc(-c3ccc(OC(F)(F)F)cc3)cc2)C2CC2)CC1` [Example 88, 4-[Cyclopropyl-(4′-trifluoromethoxy-biphenyl-4-carbonyl)-amino]-piperidine-1-carboxylic acid tert-butyl ester] displayed an EC50 of 203 nM.
As for `CC(C)(C)NS(=O)(=O)c1ccccc1-c1ccc(C(=O)N(C2CC2)C2CCN(C(=O)OC(C)(C)C)CC2)cc1` [Example 97, 4-[(2′-tert-Butylsulfamoyl-biphenyl-4-carbonyl)-cyclopropyl-amino]-piperidine-1-carboxylic acid tert-butyl ester], the figure is 161 nM; as for `CC(C)(C)OC(=O)N1CCC(N(C(=O)c2ccc(-c3ccc(C#N)cc3)cc2)C2CC2)CC1` [Example 54, 4-[(4′-Cyano-biphenyl-4-carbonyl)-cyclopropyl-amino]-piperidine-1-carboxylic acid tert-butyl ester], 84 nM.
`CCNC(=O)c1ccc(-c2ccc(C(=O)N(C3CC3)C3CCN(C(=O)OC(C)(C)C)CC3)cc2)cc1` [Example 103, 4-[Cyclopropyl-(4′-ethylcarbamoyl-biphenyl-4-carbonyl)-amino]-piperidine-1-carboxylic acid tert-butyl ester] gave a concentration for a half-maximal effect (EC50) of 51 nM.
In turn, `CC(C)OC(=O)N1CCC(N(C(=O)c2ccc(-c3cnco3)cc2)C2CC2)CC1` [Example 118, 4-[Cyclopropyl-(4-oxazol-5-yl-benzoyl)-amino]-piperidine-1-carboxylic acid isopropyl ester] yielded an EC50 of 62 nM.
Regarding `CC(C)(C)OC(=O)N1CCC(N(C(=O)c2ccc(-c3ccoc3)cc2)C2CC2)CC1` [Example 90, 4-[Cyclopropyl-(4-furan-3-yl-benzoyl)-amino]-piperidine-1-carboxylic acid tert-butyl ester], the EC50 was 228 nM.
Compound `Cc1cc(C(=O)N(C2CC2)C2CCN(C(=O)OC(C)(C)C)CC2)ccc1-c1cnco1` [Example 24, 4-[Cyclopropyl-(3-methyl-4-oxazol-5-yl-benzoyl)-amino]-piperidine-1-carboxylic acid tert-butyl ester] yielded an EC50 of 81 nM.
Regarding `CNC(=O)c1ccc(-c2ccc(C(=O)N(C3CC3)C3CCN(C(=O)OC(C)(C)C)CC3)cc2)nc1` [Example 30, 4-{Cyclopropyl-[4-(5-methylcarbamoyl-pyridin-2-yl)-benzoyl]-amino}-piperidine-1-carboxylic acid tert-butyl ester], it took 171 nM to reach a half-maximal effect (EC50).
As for `COc1ccc(-c2ccc(C(=O)N(C3CC3)C3CCN(C(=O)OC(C)(C)C)CC3)cc2)cc1` [Example 86, 4-[Cyclopropyl-(4′-methoxy-biphenyl-4-carbonyl)-amino]-piperidine-1-carboxylic acid tert-butyl ester], the response was half-maximal at 401 nM (EC50).
In the case of `C=C(C)OC(=O)N1CCC(N(C(=O)c2ccc(-c3cnco3)cc2)C2CC2)CC1` [Example 3, 4-[Cyclopropyl-(4-oxazol-5-yl-benzoyl)-amino]-piperidine-1-carboxylic acid isopropenyl ester], the EC50 worked out at 124 nM.
`Cc1nnc(-c2ccc(C(=O)N(C3CC3)C3CCN(C(=O)OC(C)(C)C)CC3)cc2)o1` [Example 61, 4-{Cyclopropyl-[4-(5-methyl-[1,3,4]oxadiazol-2-yl)-benzoyl]-amino}-piperidine-1-carboxylic acid tert-butyl ester] had an EC50 of 513 nM.
The figure for `CC(=O)NCc1ccc(-c2ccc(C(=O)N(C3CC3)C3CCN(C(=O)OC(C)(C)C)CC3)cc2)cc1` [Example 104, 4-{[4′-(Acetylamino-methyl)-biphenyl-4-carbonyl]-cyclopropyl-amino}-piperidine-1-carboxylic acid tert-butyl ester] is 333 nM.
`Cc1nc(-c2ccc(C(=O)N(C3CC3)C3CCN(C(=O)OC(C)(C)C)CC3)cc2)no1` [Example 67, 4-{Cyclopropyl-[4-(5-methyl-[1,2,4]oxadiazol-3-yl)-benzoyl]-amino}-piperidine-1-carboxylic acid tert-butyl ester] yielded an EC50 of 316 nM.
As to `COc1ncc(-c2ccc(C(=O)N(C3CC3)C3CCN(C(=O)OC(C)(C)C)CC3)cc2)cn1` [Example 99, 4-{Cyclopropyl-[4-(2-methoxy-pyrimidin-5-yl)-benzoyl]-amino}-piperidine-1-carboxylic acid tert-butyl ester], a half-maximal response (EC50) required 55 nM.
